Assay results taken from patent publication US20090227547A1, “Novel salt form of a Beta2-adrenergic agonist quinolin-2-one derivative” (Glaxo Group Limited, priority 2005, published 2009).

Assays:
Assay type in all cases: physicochemical
[1] = solubility in solvents (crystallisation antisolvents); details: in a wide range of solvents usable as antisolvents (water, tetrahydrofuran, lower alcohols, acetone)
hygroscopicity = test: hygroscopicity
[2] = physical and chemical stability on storage; details: general statement

Which results are given for “N-[2-[4-[(3-phenyl-4-methoxyphenyl)amino]phenyl]ethyl]-(R)-2-hydroxy-2-(8-hydroxy-1,2-dihydro-2-oxoquinolin-5-yl)ethylammonium 2,5-dichlorobenzenesulfonate”?
solubility [1]: limited solubility; hygroscopicity (hygroscopicity): substantially non-hygroscopic; physical and chemical stability on storage [2]: good physical and chemical stability on storage
